pIC50: −log10 of the molar value. Activity calls are given as the source filed them. The calls are words filed in the database; no cut-off is given here.
Legend:
[1] = test system: BMDM; assay: Anti-osteoclastogenic activity in C57/BL6 mouse BMDM cells assessed as inhibition of RANKL-induced osteoclast differentiation at 10 uM incubated for 4 days in presence of M-CSF by TRAP staining based microscopic analysis relative to control; format: functional; settings: 96 h, time 4 day
[2] = test system: BMDM; assay: Anti-osteoclastogenic activity in C57/BL6 mouse BMDM cells assessed as inhibition of RANKL-induced osteoclast differentiation at 5 uM incubated for 4 days in presence of M-CSF by TRAP staining based microscopic analysis relative to control; format: functional; settings: 96 h, time 4 day
[3] = test system: BMDM; assay: Anti-osteoclastogenic activity in M-CSF/RANKL-induced C57/BL6 mouse BMDM cells assessed as downregulation of ATP6V0D2 mRNA expression at 10 uM incubated upto 3 days by qRT-PCR analysis; format: functional, cell-based; settings: time <= 3.0 day
[4] = test system: BMDM; assay: Anti-osteoclastogenic activity in M-CSF/RANKL-induced C57/BL6 mouse BMDM cells assessed as downregulation of IkappaBalpha expression at 10 uM incubated upto 3 days by immunoblotting analysis; format: functional, cell-based; settings: time <= 3.0 day
[5] = test system: BMDM; assay: Anti-osteoclastogenic activity in M-CSF/RANKL-induced C57/BL6 mouse BMDM cells assessed as downregulation of CTSK mRNA expression at 10 uM incubated upto 3 days by qRT-PCR analysis; format: functional, cell-based; settings: time <= 3.0 day
[6] = Toxicity in OVX-induced osteoporosis C57BL/6 mouse model assessed as change in body weight at 30 mg/kg,po administrated twice daily for 4 weeks; format: organism-based; settings: in vivo, 672 h
[7] = test system: Pre-Osteoblast; assay: Induction of osteogenesis in mouse Pre-Osteoblast cells assessed as increase in ALP expression at < 20 uM incubated for 9 days by BCIP/NBT staining based analysis; format: functional, cell-based; settings: time 9.0 day
[8] = test system: Mus musculus; assay: Anti-osteoporosis activity in OVX-induced osteoporosis C57BL/6 mouse model assessed as increase in bone mineral density in femur at 30 mg/kg,po administrated twice daily for 4 weeks by micro-CT scanning analysis; format: functional, organism-based
[9] = test system: BMDM; assay: Cytotoxicity against C57/BL6 mouse BMDM cells at < 20 uM incubated for 48 hrs by EZ-Cytox cell viability assay; format: toxicity, cell-based
[10] = test system: Mus musculus; assay: Anti-osteoporosis activity in OVX-induced osteoporosis C57BL/6 mouse model assessed as prevention of bone loss in femur at 15 mg/kg,po administrated twice daily for 4 weeks by micro-CT scanning analysis; format: functional, organism-based
[11] = test system: BMDM; assay: Anti-osteoclastogenic activity in C57/BL6 mouse BMDM cells assessed as inhibition of RANKL-induced osteoclast differentiation by measuring number of TRAP-positive cells incubated for 4 days in presence of M-CSF by TRAP staining based microscopic analysis; format: functional, cell-based; settings: 96 h
[12] = test system: Mus musculus; assay: Anti-osteoporosis activity in OVX-induced osteoporosis C57BL/6 mouse model assessed as increase in bone mineral density in femur at 15 mg/kg,po administrated twice daily for 4 weeks by micro-CT scanning analysis; format: functional, organism-based
[13] = test system: BMDM; assay: Anti-osteoclastogenic activity in M-CSF/RANKL-induced C57/BL6 mouse BMDM cells assessed as downregulation of NFATc1 mRNA expression at 10 uM incubated upto 3 days by qRT-PCR analysis; format: functional, cell-based; settings: time <= 3.0 day
[14] = test system: Mus musculus; assay: Anti-osteoporosis activity in OVX-induced osteoporosis C57BL/6 mouse model assessed as increase in bone volume in femur at 30 mg/kg,po administrated twice daily for 4 weeks by micro-CT scanning analysis; format: functional, organism-based
[15] = test system: Pre-Osteoblast; assay: Induction of osteogenesis in mouse Pre-Osteoblast cells assessed as effect on RUNX2 mRNA expression by qRT-PCR analysis; format: functional, cell-based
[16] = test system: BMDM; assay: Anti-osteoclastogenic activity in M-CSF/RANKL-induced C57/BL6 mouse BMDM cells assessed as downregulation of ERK1 expression at 10 uM incubated upto 3 days by immunoblotting analysis; format: functional, cell-based; settings: time <= 3.0 day
[17] = test system: BMDM; assay: Anti-osteoclastogenic activity in C57/BL6 mouse BMDM cells assessed as inhibition of RANKL-induced bone resorption pit incubated for 6 days by fluorescein amine-labeled calcium phosphate based fluorescence spectramax analysis; format: functional, cell-based; settings: time 6.0 day
[18] = test system: BMDM; assay: Anti-osteoclastogenic activity in M-CSF/RANKL-induced C57/BL6 mouse BMDM cells assessed as downregulation of CTSK protein expression at 10 uM incubated upto 3 days by Western blotting analysis; format: functional, cell-based; settings: time <= 3.0 day
[19] = test system: BMDM; assay: Anti-osteoclastogenic activity in C57/BL6 mouse BMDM cells assessed as inhibition of RANKL-induced F-actin belt formation incubated for 6 days by F-actin ring assay; format: functional, cell-based; settings: time 6.0 day
[20] = test system: BMDM; assay: Anti-osteoclastogenic activity in M-CSF/RANKL-induced C57/BL6 mouse BMDM cells assessed as downregulation of ERK2 expression at 10 uM incubated upto 3 days by immunoblotting analysis; format: functional, cell-based; settings: time <= 3.0 day
[21] = test system: Pre-Osteoblast; assay: Induction of osteogenesis in mouse Pre-Osteoblast cells assessed as effect on ALP mRNA expression by qRT-PCR analysis; format: functional, cell-based
[22] = test system: BMDM; assay: Anti-osteoclastogenic activity in M-CSF/RANKL-induced C57/BL6 mouse BMDM cells assessed as downregulation of Dc-stamp mRNA expression at 10 uM incubated upto 3 days by qRT-PCR analysis; format: functional, cell-based; settings: time <= 3.0 day
[23] = test system: Mus musculus; assay: Anti-osteoporosis activity in OVX-induced osteoporosis C57BL/6 mouse model assessed as prevention of bone loss in femur at 30 mg/kg,po administrated twice daily for 4 weeks by micro-CT scanning analysis; format: functional, organism-based
[24] = test system: BMDM; assay: Anti-osteoclastogenic activity in M-CSF/RANKL-induced C57/BL6 mouse BMDM cells assessed as downregulation of c-FOS mRNA expression at 10 uM incubated upto 3 days by qRT-PCR analysis; format: functional, cell-based; settings: time <= 3.0 day
[25] = test system: BMDM; assay: Anti-osteoclastogenic activity in C57/BL6 mouse BMDM cells assessed as inhibition of RANKL-induced osteoclast formation at 10 uM incubated for 4 days in presence of M-CSF by TRAP staining based microscopic analysis; format: functional, cell-based; settings: time 4.0 day
[26] = test system: BMDM; assay: Anti-osteoclastogenic activity in M-CSF/RANKL-induced C57/BL6 mouse BMDM cells assessed as downregulation of MMP9 mRNA expression at 10 uM incubated upto 3 days by qRT-PCR analysis; format: functional, cell-based; settings: time <= 3.0 day
[27] = test system: BMDM; assay: Anti-osteoclastogenic activity in C57/BL6 mouse BMDM cells assessed as inhibition of RANKL-induced bone resorption number incubated for 6 days by fluorescein amine-labeled calcium phosphate based fluorescence spectramax analysis; format: functional, cell-based; settings: time 6.0 day
[28] = test system: BMDM; assay: Anti-osteoclastogenic activity in M-CSF/RANKL-induced C57/BL6 mouse BMDM cells assessed as downregulation of NF-kappaB expression at 10 uM incubated upto 3 days by immunoblotting analysis; format: functional, cell-based; settings: time <= 3.0 day
[29] = test system: Pre-Osteoblast; assay: Induction of osteogenesis in mouse Pre-Osteoblast cells assessed as effect on OSX mRNA expression by qRT-PCR analysis; format: functional, cell-based
[30] = test system: BMDM; assay: Anti-osteoclastogenic activity in M-CSF/RANKL-induced C57/BL6 mouse BMDM cells assessed as downregulation of ACP5 mRNA expression at 10 uM incubated upto 3 days by qRT-PCR analysis; format: functional, cell-based; settings: time <= 3.0 day
[31] = test system: Mus musculus; assay: Anti-osteoporosis activity in OVX-induced osteoporosis C57BL/6 mouse model assessed as increase in bone volume in femur at 15 mg/kg,po administrated twice daily for 4 weeks by micro-CT scanning analysis; format: functional, organism-based
[32] = Cytotoxicity against BMP2-induced mouse Pre-Osteoblast cells at < 20 uM incubated for 48 hrs by EZ-Cytox cell viability assay; format: toxicity, cell-based
[33] = test system: BMDM; assay: Anti-osteoclastogenic activity in M-CSF/RANKL-induced C57/BL6 mouse BMDM cells assessed as downregulation of FGFR1 expression at 10 uM incubated upto 3 days by immunoblotting analysis; format: functional, cell-based; settings: time <= 3.0 day

Cc1ccc(S(=O)(=O)Oc2ccccc2Cc2c(-c3ccccc3)oc3ccccc3c2=O)cc1
inhibition at 10 µM [1]: 68.1%
inhibition at 5 µM [2]: 28.9%

O=c1c(Cc2cccc(F)c2)c(-c2ccccc2)oc2ccccc12
inhibition at 10 µM [1]: 36.3%
inhibition at 5 µM [2]: 22%

O=c1cc(-c2ccccc2)oc2ccccc12 [FLAVONE]
inhibition at 10 µM [1]: 35.4%
inhibition at 5 µM [2]: 7.11%

COc1ccc(O)c(Cc2c(-c3ccccc3)oc3ccc(OC)cc3c2=O)c1
inhibition at 10 µM [1]: 16.8%
inhibition at 5 µM [2]: 17.6%

Cc1ccc(-c2oc3ccccc3c(=O)c2Cc2ccccc2O)cc1
inhibition at 10 µM [1]: 37.8%
inhibition at 5 µM [2]: 34.4%

CCCCOc1ccccc1Cc1c(-c2ccccc2)oc2ccccc2c1=O
inhibition at 10 µM [1]: 44.7%
inhibition at 5 µM [2]: 19%

O=c1c(Cc2cc(Br)ccc2O)c(-c2ccccc2)oc2ccc(Br)cc12
inhibition at 10 µM [1]: -4.4%
inhibition at 5 µM [2]: -8.26%

COc1ccc(O)c(Cc2c(-c3ccccc3)oc3ccccc3c2=O)c1
inhibition at 10 µM [1]: 38.2%
inhibition at 5 µM [2]: 36.5%

CCOc1cccc(Cc2c(-c3ccccc3)oc3ccccc3c2=O)c1O
inhibition at 10 µM [1]: 25%
inhibition at 5 µM [2]: 1.08%

O=c1c(Cc2ccccc2O)coc2ccccc12
inhibition at 10 µM [1]: 46.7%
inhibition at 5 µM [2]: 12.8%

O=c1c(Cc2cc(-c3ccccc3)ccc2O)c(-c2ccccc2)oc2ccccc12
inhibition at 10 µM [1]: 23.7%
inhibition at 5 µM [2]: 25.6%

O=c1c(Cc2ccccc2O)c(-c2ccc(-c3ccccc3)cc2)oc2ccccc12
inhibition at 10 µM [1]: 69.3%
inhibition at 5 µM [2]: 37.9%

O=c1c(Cc2cc(Br)ccc2O)c(-c2ccccc2)oc2ccccc12
inhibition at 10 µM [1]: 54.5%
inhibition at 5 µM [2]: 22.7%

Cc1ccc(-c2oc3ccc(C)cc3c(=O)c2Cc2cc(C)ccc2O)cc1
inhibition at 10 µM [1]: 23.8%
inhibition at 5 µM [2]: 22.3%

COc1cc(Oc2ccccc2Cc2c(-c3ccccc3)oc3ccccc3c2=O)cc(OC)c1OC
inhibition at 10 µM [1]: 40.3%
inhibition at 5 µM [2]: 22.7%

O=c1c(Cc2cc(Cl)cc(Cl)c2O)c(-c2ccccc2)oc2ccccc12
inhibition at 10 µM [1]: 14.7%
inhibition at 5 µM [2]: 2.94%

O=c1c(Cc2ccccc2O)c(-c2ccccc2)oc2ccccc12
inhibition at 10 µM [1]: 60.4%
inhibition at 5 µM [2]: 31.5%

COc1ccc(-c2oc3ccccc3c(=O)c2Cc2ccccc2O)cc1
Activity [3]: Active
Activity [4]: Active
Activity [5]: Active
Activity [6]: Non-Toxic
Activity [7]: inactive
Activity [8]: Active
inhibition at 10 µM [1]: 79%
inhibition at 5 µM [2]: 56.4%
Activity [9]: Non-Toxic
Activity [10]: Active
pIC50 [11]: 5.62
Activity [12]: Active
Activity [13]: Active
Activity [14]: Active
Activity [15]: inactive
Activity [16]: Active
Activity [17]: Dose-Dependent Effect
Activity [18]: Active
Activity [19]: Dose-Dependent Effect
Activity [20]: Active
Activity [21]: inactive
Activity [22]: Active
Activity [23]: Active
Activity [24]: Active
Activity [25]: Active
Activity [26]: Active
Activity [27]: Dose-Dependent Effect
Activity [28]: Active
Activity [29]: inactive
Activity [30]: Active
Activity [31]: Active
Activity [32]: Non-Toxic
Activity [33]: Active

O=c1c(Cc2ccccc2)c(-c2ccccc2)oc2ccccc12
inhibition at 10 µM [1]: 30.6%
inhibition at 5 µM [2]: 22.6%

O=c1c(Cc2ccccc2O)c(-c2ccc(Cl)cc2)oc2ccccc12
inhibition at 10 µM [1]: 36.7%
inhibition at 5 µM [2]: 33%

O=c1c(Cc2ccccc2Oc2ccc(O)cc2)c(-c2ccccc2)oc2ccccc12
inhibition at 10 µM [1]: 55.3%
inhibition at 5 µM [2]: 29.4%

Cc1ccc(O)c(Cc2c(-c3ccccc3)oc3ccccc3c2=O)c1
inhibition at 10 µM [1]: 32.5%
inhibition at 5 µM [2]: 21.5%

O=c1c(Cc2cc(F)ccc2O)c(-c2ccccc2)oc2ccc(F)cc12
inhibition at 10 µM [1]: 37.6%
inhibition at 5 µM [2]: 40%

CC(C)(C)c1ccc(Oc2ccccc2Cc2c(-c3ccccc3)oc3ccccc3c2=O)cc1
inhibition at 10 µM [1]: 12%
inhibition at 5 µM [2]: 11.1%

CS(=O)(=O)c1ccc(Oc2ccccc2Cc2c(-c3ccccc3)oc3ccccc3c2=O)cc1
inhibition at 10 µM [1]: 51.8%
inhibition at 5 µM [2]: 23.2%
